Reference: patent US20250333397A1 (REMIX THERAPEUTICS INC., priority 2021, published 2025)
Read-outs that look alike come from different tables or passages of the source.

Tests used:
Type in all cases: cell-based, human
[1] = system: SMN2 mRNA; experiment: RT-qPCR splicing assay panel, SMN2 canonical junction (CJ) mRNA; conditions: Homo sapiens
In short: (§1)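 A673 (DMEM/10% FBS) or K562 (IMDM/10% FBS) cells treated 24 h at 37 °C with 11-point 3-fold dilutions, top 10 uM final, DMSO ≤0.25%. Lysates read by one-step RT-qPCR for CJ and AJ isoforms, normalized to GAPDH, GUSB or PPIA. ΔΔCt vs DMSO gives RQ via 2^(-ΔΔCt).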

[2] = system: Target C mRNA; experiment: RT-qPCR splicing assay panel, Target C canonical junction (CJ) mRNA; conditions: Homo sapiens
In short: as §1

[3] = system: HTT mRNA; experiment: RT-qPCR splicing assay, HTT canonical (CJ) and alternative (AJ) junction mRNA; conditions: Homo sapiens; for AC50: read-out: HTT AJ (AC50, increase in AJ mRNA)
In short: as §1

[4] = system: MYB mRNA; experiment: RT-qPCR splicing assay, MYB canonical (CJ) and alternative (AJ) junction mRNA; conditions: Homo sapiens; for AC50: read-out: MYB AJ (AC50, increase in AJ mRNA)
In short: as §1

[5] = canonical junction (CJ) mRNA, RT-qPCR panel, Table 4A, read-out: SMN2, decrease in CJ mRNA levels, IC50
[6] = canonical junction (CJ) mRNA, RT-qPCR panel, Table 4A, read-out: Target C, decrease in CJ mRNA levels, IC50
[7] = 24 h, Table 3A, A673 or K562 cells, 24 h treatment
[8] = 24 h, Table 3A, A673 or K562 cells, 24 h treatment, read-out: HTT CJ (IC50, decrease in CJ mRNA)
[9] = canonical junction (CJ) mRNA, RT-qPCR panel, Table 4A, read-out: HTT, decrease in CJ mRNA levels, IC50
[10] = 24 h, Table 3A, A673 or K562 cells, 24 h treatment, read-out: MYB CJ (IC50, decrease in CJ mRNA)
[11] = canonical junction (CJ) mRNA, RT-qPCR panel, Table 4A, read-out: MYB, decrease in CJ mRNA levels, IC50
[12] = 24 h, Table 3B, A673 or K562 cells, 24 h treatment

SMILES	IC50 [1, 5] [µM]	IC50 [2, 6] [µM]	IC50 [3, 8] [µM]	IC50 [3, 9] [µM]	IC50 [4, 10] [µM]	IC50 [4, 11] [µM]	IC50 ([1]; Table 4B, gene panel, read-out: SMN2 (IC50, decrease in CJ mRNA levels)) [µM]	IC50 ([2]; Table 4B, gene panel, read-out: Target C (IC50, decrease in CJ mRNA levels)) [µM]	IC50 ([3]; 24 h, Table 3B, A673 or K562 cells, 24 h treatment, read-out: HTT CJ (IC50, decrease in CJ mRNA)) [µM]	IC50 ([3]; Table 4B, gene panel, read-out: HTT (IC50, decrease in CJ mRNA levels)) [µM]	IC50 ([4]; 24 h, Table 3B, A673 or K562 cells, 24 h treatment, read-out: MYB CJ (IC50, decrease in CJ mRNA)) [µM]	IC50 ([4]; Table 4B, gene panel, read-out: MYB (IC50, decrease in CJ mRNA levels)) [µM]	AC50 [3, 7] [µM]	AC50 [4, 7] [µM]	AC50 [3, 12] [µM]	AC50 [4, 12] [µM]
Cc1cc(-c2ccc(-c3ccc(N4CCC(NC5CCC5)C4)nn3)c(O)c2)cc2cn(C)nc12 (centres unmarked) [Compound 318]	0.1 to 1	0.1 to 1	0.1 to 1	0.1 to 1	1 to 10	1 to 10	–	–	–	–	–	–	0.1 to 1	> 10	–	–
O=c1cc(-c2cc(O)c(-c3ccc(N4CC[C@@H](NC5CCC5)C4)nn3)cc2F)cc[nH]1 [Compound 220, 4-(4-{6-[(3R)-3-(cyclobutylamino)pyrrolidin-1-yl]pyridazin-3-yl}-2-fluoro-5-hydroxyphenyl)-1H-pyridin-2-one]	0.1 to 1	0.1 to 1	0.1 to 1	0.1 to 1	0.1 to 1	0.1 to 1	–	–	–	–	–	–	0.1 to 1	0.1 to 1	–	–
Cn1ccc2cc(O)c(-c3cnc(N4CCC(NC(C)(C)C)C4)nn3)cc2c1=O (centres unmarked) [Compound 869]	–	–	–	–	–	–	> 10	> 10	> 10	> 10	> 10	> 10	–	–	> 10	> 10
Cc1ncc(-c2cc(O)c(-c3ccc(N4CC[C@H](NCC5CC5)C4)nn3)cc2F)s1 [Compound 393]	< 0.1	< 0.1	< 0.1	< 0.1	< 0.1	< 0.1	–	–	–	–	–	–	< 0.1	< 0.1	–	–
Cc1nc(C)c(-c2cc(O)c(-c3ccc(N4CC[C@H](NC5CCC5)C4)nn3)cc2F)s1 [Compound 386]	0.1 to 1	1 to 10	0.1 to 1	0.1 to 1	1 to 10	1 to 10	–	–	–	–	–	–	1 to 10	1 to 10	–	–

Second part, led by results:

IC50 [1, 5] [µM]	IC50 [2, 6] [µM]	IC50 [3, 8] [µM]	IC50 [3, 9] [µM]	IC50 [4, 10] [µM]	IC50 [4, 11] [µM]	IC50 ([1]; Table 4B, gene panel, read-out: SMN2 (IC50, decrease in CJ mRNA levels)) [µM]	IC50 ([2]; Table 4B, gene panel, read-out: Target C (IC50, decrease in CJ mRNA levels)) [µM]	IC50 ([3]; 24 h, Table 3B, A673 or K562 cells, 24 h treatment, read-out: HTT CJ (IC50, decrease in CJ mRNA)) [µM]	IC50 ([3]; Table 4B, gene panel, read-out: HTT (IC50, decrease in CJ mRNA levels)) [µM]	IC50 ([4]; 24 h, Table 3B, A673 or K562 cells, 24 h treatment, read-out: MYB CJ (IC50, decrease in CJ mRNA)) [µM]	IC50 ([4]; Table 4B, gene panel, read-out: MYB (IC50, decrease in CJ mRNA levels)) [µM]	SMILES	AC50 [3, 7] [µM]	AC50 [4, 7] [µM]	AC50 [3, 12] [µM]	AC50 [4, 12] [µM]
< 0.1	< 0.1	< 0.1	< 0.1	0.1 to 1	0.1 to 1	–	–	–	–	–	–	COc1cc(-c2ccc(-c3ccc(N4CCC(C)(NC(C)C)C4)nn3)c(O)c2)cnn1 (centres unmarked) [Compound 285, 2-{6-[3-(isopropylamino)-3-methylpyrrolidin-1-yl]pyridazin-3-yl}-5-(6-methoxypyridazin-4-yl)phenol]	< 0.1	0.1 to 1	–	–
1 to 10	1 to 10	1 to 10	1 to 10	1 to 10	1 to 10	–	–	–	–	–	–	Cc1nc(-c2cc(O)c(-c3ccc(N4CCC(NC5CCC5)C4)nn3)cc2F)cs1 (centres unmarked) [Compound 398]	1 to 10	1 to 10	–	–
< 0.1	0.1 to 1	< 0.1	< 0.1	0.1 to 1	0.1 to 1	–	–	–	–	–	–	COc1cc(-c2ccc(-c3ccc(N4CCC(N[C@H]5C[C@H](O)C5)C4)nn3)c(O)c2)cnn1 (some centres unmarked) [Compound 447]	< 0.1	0.1 to 1	–	–
< 0.1	0.1 to 1	0.1 to 1	0.1 to 1	0.1 to 1	0.1 to 1	–	–	–	–	–	–	CN(C1CCC1)[C@@H]1CCN(c2ccc(-c3ccc(-c4cn[nH]c4)cc3O)nn2)C1 [Compound 296, 2-{6-[(3R)-3-[cyclobutyl(methyl)amino]pyrrolidin-1-yl]pyridazin-3-yl}-5-(1H-pyrazol-4-yl)phenol]	0.1 to 1	0.1 to 1	–	–
< 0.1	0.1 to 1	0.1 to 1	0.1 to 1	0.1 to 1	0.1 to 1	–	–	–	–	–	–	COc1nc(-c2ccc(N3CCC(NC4CCC4)C3)nn2)ccc1-c1cnc(C)s1 (centres unmarked) [Compound 374]	0.1 to 1	1 to 10	–	–
